Results from patent publication US20220177511A1, “SERIES OF HALOGENATED TETRACYCLIC TRITERPENE DERIVATIVES AND THEIR PREPARATION AND APPLICATION” (SHANGHAI KING-X BIOTECH CO., LTD, priority 2019, published 2022).
≈ marks a conversion by molar mass, not a printed value. Entries after “also recorded” stand apart in the source; their conditions may differ.

Assays:
[1] = test system: C57 mouse CHF model; test: In vivo efficacy on chronic heart failure in mice (coronary artery ligation, echocardiography), enalapril control; settings: positive control 2 mg/kg, p<0.0001 (FIG. 6)
Procedure: C57 mouse coronary artery ligation method was used in this experiment to prepare the mouse CHF model. The differences in echocardiography, hemodynamics and histopathology of the model were observed after administration. Test substance: compound 2. Solvent: 0.3% sodium carboxymethyl cellulose. Dosage: 1 mg/kg, 3 mg/kg, 10 mg/kg, 30 mg/kg and 100 mg/kg. Route of administration: intragastric. Control drug: enalapril 2 mg/kg. Strain: C57 mouse; Age: 7 weeks; Weight: 18-20 g; Gender: Male; Grade: SPF C57 mouse CHF model was established by coronary artery ligation method in this experiment. The differences in echocardiography, hemodynamics and histopathology of the model were observed after administration. 5 dose groups were set for compound 2 in this experiment. Enalapril was selected as the positive control. Once daily for 28 consecutive days. The doses for each group was 1 mg/kg, 3 mg/kg, 10 mg/kg, 30 mg/kg and 100 mg/kg. Positive control group: Enalapril (2 mg/kg) was administered after CHF was established. The mice were anesthetized in a box filled with isoflurane. After the mice were anesthetized, the left 4th intercostal space was opened to expose the left atrial appendage and left ventricle. It can be seen that the left coronary artery runs downward from the middle of the left atrial appendage to the anterior wall of the left ventricle. The coronary artery is sutured at a high position about 1 mm from the lower border of the left atrial appendage. After ligation, the myocardium gradually changes from fleshy red to pale white, indicating myocardial infarction. The model is successfully established, and the chest is closed layer by layer. After the spontaneous breathing of the mice recovered, the mice were caged and reared in a day-night cycle with free access to water and food. After being reared for 30 days, the chronic heart failure model was detected by echocardiography, and the mice with successful chronic heart failure model were selected. Qualified CHF mice screened by echocardiography were randomly grouped. Mice were given compound 2 by intragastric administration once daily for 28 consecutive days. The body weight of mice was measured every week, and echocardiography was performed after 28 days of administration. After the […] anesthetized, 1 mm^3 tissue was taken from the hearts of 3 mice in each group, fixed with electron microscope fixative, and detected by transmission electron microscope to observe the ultrastructure of the heart. All remaining heart tissues were fixed with 10% formaldehyde, and stained with HE for histopathology to observe histopathological changes.

[2] = Pharmacokinetics of parent HHQ16 after single intragastric administration of compound 2 prodrugs in rats; assay type: in vivo, rat; settings: HHQ16 (parent) measured in rats after single intragastric 10 mg/kg of prodrug (dose converted to HHQ16)
Procedure: 1. The materials and methods for oral absorption test are the same as described in example 44.
The pharmacokinetic parameters of HHQ16 measured after a single intragastric administration of 10 mg/kg of compound 2 prodrug in rats are summarized in Table 2 below.
The half-life was prolonged to varying degrees.

[3] = Solubility test in water and FaSSIF; assay type: physicochemical; settings: 37° C., up to 24 hours
[4] = Metabolic stability in rat liver microsomes; assay type: in vitro ADME; settings: compared with compound 5 (cycloastragenol)
[5] = Metabolic stability in human liver microsomes; assay type: in vitro ADME; settings: for Metabolic half-life of human liver microsomes: 5 μM compound, 1 mg/mL microsomes, 37° C.
Procedure: Preparation of the test sample: Compound 1 (prepared in Example 5), 2 (prepared in Example 4), and 5 (cycloastragenol, purchased from Chengdu Jintaihe Company) were dissolved with an appropriate amount of DMSO to obtain a concentration of 10 mM solution.
1) The compound was diluted with DMSO to 0.5 mM, and diluted to 1/20 with PBS before the experiment.
2) Human liver microsomes and potassium phosphate buffer were added to the EP tube respectively and mixed by gentle shaking.
3) Pre-incubate the EP tube in a metal bath at 37° C. for 5 minutes. 4) Compound 1, 2 or 5 were added and incubated at 37° C.
5) Take 100 μl of sample from the tube at 0, 60, 120, 240, and 360 minutes respectively, and add the sample to the stop tube (containing 100 μl of cooled acetonitrile solution). The mixture was shaken vigorously to terminate the reaction and then placed it in a −30° C. refrigerator until analysis.
6) Centrifuge at 14300 r/min and 4° C. for 10 minutes, aspirate the supernatant and place it in a −30° C. refrigerator until analysis.
Column: Shim-pack XR-ODS II, 2.0×75 mm; mobile phase: mobile phase B: aqueous solution containing 0.2% formic acid; mobile phase A: acetonitrile solution; mobile phase ratio: […]

Molecule | Cardiac output per minute (CO), day 28 vs day 0 [1] | AUC0-t [2] [ng·h/mL] | Cmax [2] [ng/mL] | t1/2 [2] [h] | Solubility ([3]; FaSSIF (pH 6.5)) [µg/mL] | Solubility ([3]; Water) [µg/mL] | metabolic stability in rat liver microsomes [4] | Metabolic half-life of human liver microsomes [5] [h] | metabolic stability in human liver microsomes ([5]; compared with compound 5 (cycloastragenol))
CCOC(=O)[C@H](CCc1ccccc1)N[C@@H](C)C(=O)N1CCC[C@H]1C(=O)O [Enalapril, reference compound] | very significant increase | – | – | – | – | – | – | – | –
CC(C)(O)[C@@H]1CC[C@@](C)([C@H]2[C@@H](O)C[C@@]3(C)[C@@H]4C[C@H](OC(=O)C[C@H]5CCCN5)[C@H]5C(C)(C)C(F)(F)CC[C@@]56C[C@@]46CC[C@]23C)O1.Cl [Compound 2-3, (R)-2-(2-(((2aR,3R,4S,5aS,5bS,7S,7aR,11aR,12aS)-9,9-difluoro-4-hydroxy-3-((2S,5S)-5-(2-hydroxypropan-2-yl)-2-methyltetrahydrofuran-2-yl)-2a,5a,8,8-tetramethyltetradecahydro-1H,12H-cyclopenta[a]cyclopropa[e]phenanthren-7-yl)oxy)-2-oxoethyl)pyrrolidin-1-ium Chloride] | – | 3200 | 460 | 3.98 | 1800 | 950 | – | – | –
Br.CC(C)(O)C1CCC(C)(C2C(O)CC3(C)C4CC(OC(=O)CN)C5C(C)(C)C(F)(F)CCC56CC46CCC23C)O1 [Compound 2-16, 2-(((2aR,3R,4S,5aS,5bS,7S,7aR,11aR,12aS)-9,9-difluoro-4-hydroxy-3-((2S,5S)-5-(2-hydroxypropan-2-yl)-2-methyltetrahydrofuran-2-yl)-2a,5a,8,8-tetramethyltetradecahydro-1H,12H-cyclopenta[a]cyclopropa[e]phenanthren-7-yl)oxy)-2-oxoethan-1-aminium Bromide] | – | 4623 | 510 | 5.2 | 5300 | 950 | – | – | –
(2aR,3R,4S,5aS,5bS,7S,7aR,9R,11aR,12aS)-9-halogen-3-((2R,5S)-5-(2-hydroxypropan-2-yl)-2-methyltetrahydrofuran-2-yl)-2a,5a,8,8-tetramethyltetradecahydro-1H,12H-cyclopenta[a]cyclopropa[e]phenanthrene-4,7-diol [Compound 1] | – | – | – | – | – | – | relatively stable; also recorded: more stable than cycloastragenol | 3.893 | relatively stable; also recorded: more stable than cycloastragenol
CC(C)(O)[C@@H]1CC[C@](C)([C@H]2[C@@H](O)C[C@@]3(C)[C@@H]4C[C@H](O)[C@H]5C(C)(C)[C@@H](O)CC[C@@]56C[C@@]46CC[C@]23C)O1 [Compound 5, (2aR,3R,4S,5aS,5bS,7S,7aR,9S,11aR,12aS)-3-((2S,5S)-5-(2-hydroxypropan-2-yl)-2-methyltetrahydrofuran-2-yl)-2a,5a,8,8-tetramethyltetradecahydro-1H,12H-cyclopenta[a]cyclopropa[e]phenanthrene-4,7,9-triol, reference compound] | – | – | – | – | 49 (≈ 99.9 µM) | 8 (≈ 16.3 µM) | – | 0.308 | –
